Here are results for 87 compounds from a melting point compilation (Tetko et al.; mined from patent text by program, amines drawn as free bases though some values may be those of a salt).

For orientation: melting point means the temperature, or range, at which the solid turns liquid. Compound `CCCN(CCC)C1Cc2c(OC)ccc3ncn(c23)C1` (configuration not stated) had a melting point of 46 to 49 °C. The compound `CCS(=O)c1cc(C(=O)O)c(OC)cc1N` (configuration not stated) had a melting point of 158 °C. In turn, `CN(C)CCCC1CCN(C=Nc2ccc3c(c2)C(=O)c2ccc(N=CN4CCC(CCCN(C)C)CC4)cc2C3=O)CC1` had a melting point of 171 to 174 °C. `CCCn1ccnc(S(=O)(=O)Cc2ccc(Cl)cc2)c1=O` returned a melting point of 125 to 128 °C.

In turn, `O=C1C(=Cn2ccnc2)CSc2ccccc21` came in with a melting point of 139 to 140 °C. The compound `CC(C)c1cccc(C(C)C)c1NC(=O)C(Cc1ccc(OCc2ccccc2)cc1)NCc1ccccc1` (configuration not stated) displayed a melting point of 127 to 129 °C.

In turn, `C(=Nc1c2c(nc3ccccc13)CCCC2)c1cccc2ccccc12` registered a melting point of 229 to 231 °C.

The compound `OC(Cn1ccnc1)(c1ccc(F)cc1)c1ccc(-c2ccccc2)cc1` (configuration not stated) registered a melting point of 220 °C. With `COc1cc(CC(=O)NCCOc2ccc(C(=O)O)cc2[N+](=O)[O-])ccc1NC(=O)Nc1ccccc1C`, the melting point was in the range of 112 to 115 °C. For `O=C(O)C=c1sc2n(c1=O)Cc1ccccc1N=2`, the melting point is 263 to 264 °C. Under `CN(Cc1cc2c(=O)c(C(=O)NCc3ccc(Cl)cc3)cn(C)c2o1)CC(O)c1ccccc1` (configuration not stated) stands 118 to 121 °C. Under `CCOC(=O)c1cnn2c1nc(N(CC)CC)c1cnc3c(cnn3CC)c12` stands 170 to 172 °C; under `CS(=O)(=O)c1cccc(-c2cn(-c3nc(-c4ccc(C(F)(F)F)cc4)cc(C(F)(F)F)n3)cn2)c1`, 231 °C. Regarding `COc1ccc(CN2C(=O)C(N)C(=O)N(CCC(C)C)c3ccccc32)cc1` (configuration not stated), the melting point lay within 115 to 116 °C. In turn, `CC1(C(=O)Nc2ccc(Oc3ccc(Cl)cc3)c(C(F)(F)F)c2)CC1` returned a melting point of 115 to 117 °C. Regarding `CSC(C(=O)c1cc(-c2ccccc2)on1)N1CCCCC1` (configuration not stated), the melting point fell in the range of 113 to 115 °C. `C[C@H](c1ccccc1)n1c(N)nc2c(N)nc3ccccc3c21` gave a melting point of 135 to 140 °C. The compound `Cc1c(CCCCCCCCC(=O)O)cccc1C(=O)c1ccc(Cl)cc1` came in with a melting point of 64 °C. Under `Clc1ccc(-c2ccc(C(Cl)Cn3cncn3)cc2)cc1` (configuration not stated) stands 118 °C; under `CC(=O)NS(=O)(=O)c1cccc(N)c1`, 148 to 150 °C; under `O=C1C2CCCC2=Nc2ccccc2N1Cc1ccc([N+](=O)[O-])cc1` (configuration not stated), 185 to 188 °C. In turn, `CNC(=O)c1ccc(Nc2nc(O[C@H]3CCOC3)c3c(-c4ccc5nc(C)oc5c4)c[nH]c3n2)c(C)c1` returned a melting point of 273 to 274 °C. Compound `CCCc1nc2c(N)nc3cc(OC4CCOC4)ccc3c2n1CC(C)C` (configuration not stated) had a melting point of 178 to 182 °C. Under `CN1CCN(c2c(F)c(NCc3ccccc3)c3nc(CC(N)=O)n(C4CC4)c3c2F)CC1` stands 157 to 159 °C; under `O=c1cc[nH]c2c(Sc3nc4ccccc4[nH]3)cccc12`, more than 240 °C; under `CNC(=N)Nc1c(Cl)cccc1Cl`, 140 °C.

In the case of `CCCc1c(OCCCOc2cccc3c2CCCC3)ccc2c1OC(CCC=O)(CCC=O)CC2=O`, the melting point lay within 107 to 108 °C. `O=C(NCc1ccc(Cl)cc1)c1cn2c(CO)cc3cc(CC4CCOCC4)cc(c1=O)c32`: the melting point lay in the range of 71 to 74 °C. For the compound `CCN(CC)CC1CCCCN1CC(=O)N1c2ccccc2NC(=O)c2c1ccn2C` (configuration not stated), the melting point was in the range of 141 to 144 °C. Under `O=[N+]([O-])c1ccc(Sc2cccc3cnccc23)nc1` stands 115 to 117 °C. In the case of `Cc1ccc(C)c(C2C(=O)CC(C)C2=O)c1` (configuration not stated), the melting point lay in the range of 138 to 140 °C. Under `CC(=O)Oc1ccc(-c2c(CBr)c3ccc(OC(C)=O)cc3oc2=O)c(OC(C)=O)c1` stands 171 to 172 °C; under `CCNC(=O)n1nc(Oc2c(F)cc(C(F)(F)F)cc2F)cc1C`, 102 to 104 °C; under `CC(C)c1ccc2c(c1)OC1(OC(=O)C(C)(C)C)c3ccccc3C(=O)C21OC(=O)C(C)(C)C` (configuration not stated), 153 to 157 °C.

`CCOC(=O)NN(C)c1ccc(-c2ccccc2)nn1` returned a melting point of 129 to 130 °C. `CCOC(=O)C=Cc1c(OC)cncc1OC` showed a melting point of 100 to 101 °C. Turning to `COC(Cc1c(Br)cc(Br)c(C(N)=O)c1Br)C(=O)O` (configuration not stated), the melting point was in the range of 138 to 139 °C.

`Cc1ccc([C@H](CC(=O)O)NC(=O)Nc2c(N)cc(C)n(Cc3ccccc3Cl)c2=O)cc1` returned a melting point of 145 to 147 °C. Compound `O=[N+]([O-])c1cc(F)ccc1N1CCc2ccccc21` displayed a melting point of 87 to 89 °C. For the compound `Cc1ccc(Cl)cc1NC(=S)Nc1cc[nH]n1`, the melting point lay within 221 to 222 °C.

Turning to `CN(C)CC(O)Cn1c2ccccc2c2c3c(c4c5ccccc5n(C)c4c21)C(=O)N(C)C3=O` (configuration not stated), the melting point was 198 to 203 °C. For the compound `COc1ccc(C2CNC(=O)NC2)cc1OCCCCc1ccccc1`, the melting point lay in the range of 142 to 143 °C. Regarding `Oc1cc(-c2c3ccccc3c(Br)c3sc4ccccc4c23)cc(Br)c1O`, the melting point fell in the range of 212 to 213 °C.

`CCC(=O)c1ccc(Cl)c2nc3n(c12)CCCN3c1ccc(Cl)cc1Cl` displayed a melting point of 156 to 157 °C. `CCC(=O)Nc1c([N+](=O)[O-])c(C(C)(C)C)nn1-c1c(Cl)cc(C(F)(F)F)cc1Cl`: the melting point lay within 151 to 152 °C. `Nc1cc(N2C(=O)CN(CCCF)C2=O)c(F)cc1Cl` displayed a melting point of 89 to 91 °C. `NC(=O)Cn1cc2c(n1)CN=C(c1ccccc1)c1cc(Cl)ccc1-2` gave a melting point of 236 to 238 °C. `O=c1c2cc(Oc3ccc(Cl)cc3)ccc2nnn1Cc1cccnc1` yielded a melting point of 134 to 136 °C.

With `CCC(C)(C)C1=C(O)C(=O)c2ccccc2C1=O`, the melting point is 52 °C.

`COC(=O)c1ccc(C#CC#C[Si](C)(C)C)cc1` registered a melting point of 67 to 68 °C. Consider `NC(=O)c1c(N2CCN(Cc3ccccc3)CC2)nn2c(-c3cccc(C(F)(F)F)c3)ccnc12`, for which the melting point lay within 252 to 254 °C. `O=c1[nH]ncc2[nH]c(-c3ccc(OC(F)F)c(OCC4CC4)c3)c(Cl)c12` yielded a melting point of 258 to 260 °C. Under `C[C@@H]1N(c2ccc(C#N)c(C(F)(F)F)c2)C(=O)C[C@@]1(O)C1CC1` stands 84 to 90 °C; under `O=C(O)CCCCCCCCCCSc1nc(-c2ccccc2)c(-c2ccccc2)[nH]1`, 193 to 195 °C; under `Cc1cccc(NC(=O)N(C)c2nc(-c3ccccc3)c(-c3ccc(=O)n(C(C)C)n3)s2)c1`, 157 to 158 °C. Under `NCC(c1ccccc1)C(CN)c1ccccc1` (configuration not stated) stands 144 to 145 °C; under `COC(=O)C(=NO)c1nc2cccc(OC)c2oc1=O`, 176 to 178 °C; under `CN1CCC(c2c[nH]c3ccc(Cn4cncn4)cc23)C1` (configuration not stated), 59 to 61 °C. `COc1cc(OC)c2ccsc2c1`: the melting point fell in the range of 78 to 80 °C. The compound `CCOC(=O)c1cc(OCCC2CCN(c3ccc(Cl)nn3)CC2)cs1` came in with a melting point of 112 °C.

On to `O=C(O)c1ccc2cc(OCCOc3ccc4c(CCO)c(C(=O)O)c(CCO)cc4c3)ccc2c1`, for which the melting point worked out at 240 °C.

Regarding `COC(=O)CCSc1cc(C(C)(C)C)c(O)c(C(C)(C)C)c1`, the melting point lay in the range of 63.5 to 65.5 °C. `CCCCC(O)(COc1ccc(C(=O)O)c(O)c1)c1ccc2c(c1)C(C)(C)CCC2(C)C` (configuration not stated) had a melting point of 142 to 143 °C. As to `CC(O)C1C(=O)N2C(C(=O)OCc3ccccc3)=C(S(=O)c3ccccc3)CC12` (configuration not stated), the melting point is 104 to 109 °C. `COC(=O)c1c(O)cc(OCC(O)c2ccc3c(c2)C(C)(C)CCC3(C)C)cc1O` (configuration not stated) yielded a melting point of 127 to 128 °C.

`C#CCn1ncc(-c2ccc(S(C)(=O)=O)cc2)c(-c2ccc(F)cc2)c1=O` had a melting point of 196 to 198 °C. As to `COc1cccc(CCC(=O)C2C(=O)CCC2=O)c1O`, the melting point lay in the range of 108 to 109 °C. Under `C[Si](C)(C)c1ccc2cc(C(=O)Nc3ccc(N4CCC4)nc3)n(Cc3cccc(F)c3)c2c1` stands 208 to 210 °C; under `CCCCc1nn2c(-c3ccccc3)c(C)nc2n1Cc1ccc(-c2ccccc2-c2nnn[nH]2)cc1`, more than 108 °C; under `NC(=O)c1cnccc1-c1ccccc1C(=O)N1Cc2ccccc2Cc2ccccc21`, 217 to 220 °C.

Take `CCc1cc2cc(OC)ccc2[nH]1`: the melting point was 49 to 50 °C.

With `CCCN1C(=O)COc2cc(F)c(N=c3sc(=S)n4n3CCCC4)cc21`, the melting point lay within 112 to 114 °C. On to `COC1=C(OC)CC(C)(CNCCCCc2ccc(NC(=O)c3cccc4c(=O)c5cc(F)ccc5sc34)cc2)C=C1` (configuration not stated), for which the melting point amounted to 168 °C. On to `Cc1ccccc1C(=O)Nc1ccc(C(=O)N2Cc3ccccc3Sc3ccccc32)cc1`, for which the melting point fell in the range of 145 to 148 °C. Under `CCn1c(CCOC(N)=O)nc(C(C)C)c1Sc1cc(Cl)cc(Cl)c1` stands 161 to 162 °C; under `CCCCSc1c2sc3ccccc3nc-2ccc1=O`, 72 °C. `CC1=Nc2cc(C)c(C)cc2C(=O)C1` displayed a melting point of 120 to 122 °C. `CCNC(=O)c1ccc2ccc(OC)cc2c1OC(C)C` returned a melting point of 78 to 79 °C. Compound `CC1=CC(c2ccccc2)C(c2cccs2)=NN1` (configuration not stated) came in with a melting point of 150 °C. Compound `O=C(NC1CCN(C2CCCCC2)C1)c1cccc(Br)c1` (configuration not stated) had a melting point of 128 to 130 °C.

For the compound `O=C(c1nc2ccccc2s1)C1CCN(CCc2ccc(F)cc2)CC1`, the melting point fell in the range of 97 to 98 °C. Under `Cc1oc(-c2ccccc2)nc1COc1ccc(CON=C(CCCCC(=O)NS(C)(=O)=O)c2ccccc2)cc1` stands 130 to 132 °C; under `CCCCc1nn(C)c2c1CCc1c(C(N)=O)sc(Oc3ccc4c(c3)OCO4)c1-2`, 161 to 162 °C; under `CC(=O)NC(=Cc1cccs1)C1=NC(=Cc2cccs2)C(=O)O1`, 218 °C. For `CCCCOC(=O)c1ccc2ccc(C(=O)NCc3ccc(O)c(O)c3)nc2c1OC(=O)C(C)(C)C`, the melting point was 189 °C. Under `C/C(=C\c1ccncc1)c1ccc2c(c1)C(C)(C)CCC2(C)C` stands 84 to 85 °C; under `C[C@H]1CCCC(C)(C)[C@@H]1[C@H](O)c1cccc(C#N)c1`, 105 to 107 °C.
